Experimental data from ChEMBL document CHEMBL1201862, “PubChem BioAssay data set” (2004).
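1) Cells in 96-well plates. 2) Compound, 48 h, 5 concentrations. 3) Linear interpolation between surrounding doses. 4) Unreached endpoint = highest concentration. GI50 marks 50% less growth.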 Calls of active or inactive are those of the source. Cut-off read from the data, not from the text of the source: active = GI50 up to about 1.1 µM and inactive = higher.

Key:
Test in all cases: DTP human tumour cell line panel, 48 h
A549 = tested on: A549
CAKI-1 = tested on: CAKI-1
HCT-116 = tested on: HCT-116
HL-60 = tested on: HL-60
LOX IMVI = tested on: LOX IMVI
M19-MEL = tested on: M19-MEL
NCI-H226 = tested on: NCI-H226
NCI-H460 = tested on: NCI-H460
OVCAR-5 = tested on: OVCAR-5
SF-268 = tested on: SF-268
SF-539 = tested on: SF-539
SK-MEL-5 = tested on: SK-MEL-5
SNB-19 = tested on: SNB-19
SNB-75 = tested on: SNB-75
UACC-257 = tested on: UACC-257

Measured: GI50

COc1cc2c(cc1OC)[C@H]1C(COC(=O)c3ccccc3)CS/C(=N/c3ccccc3)N1CC2 (stereo not given in full)
inactive: A549 82.6 µM | CAKI-1 > 100 µM | HCT-116 5.68 µM | HL-60 5.31 µM | LOX IMVI 92.9 µM | M19-MEL > 100 µM | NCI-H226 36.3 µM | NCI-H460 91.8 µM | OVCAR-5 3.54 µM | SF-268 8.69 µM | SF-539 > 100 µM | SK-MEL-5 > 100 µM | SNB-19 21 µM | SNB-75 27.7 µM | UACC-257 > 100 µM

CCCCN(CC)CC(C(C)=O)c1c(O)c2ccccc2oc1=O (stereo not given)
inactive: A549 > 100 µM | CAKI-1 > 100 µM | HCT-116 > 100 µM | HL-60 > 100 µM | LOX IMVI > 100 µM | M19-MEL > 100 µM | NCI-H226 > 100 µM | NCI-H460 > 100 µM | OVCAR-5 > 100 µM | SF-268 > 100 µM | SF-539 > 100 µM | SK-MEL-5 > 100 µM | SNB-19 > 100 µM | SNB-75 > 100 µM | UACC-257 > 100 µM

NC(=O)/C(=N\NC(=O)C[n+]1ccccc1)C1NC(=O)NC1=O (stereo not given)
inactive: A549 > 100 µM | CAKI-1 > 100 µM | HCT-116 > 100 µM | HL-60 > 100 µM | LOX IMVI > 100 µM | M19-MEL > 100 µM | NCI-H226 > 100 µM | NCI-H460 > 100 µM | OVCAR-5 > 100 µM | SF-268 > 100 µM | SF-539 > 100 µM | SK-MEL-5 > 100 µM | SNB-19 > 100 µM | SNB-75 > 100 µM | UACC-257 > 100 µM
